Patent US20100168434A1, “INHIBITION OF POLYMERISATION” (priority 2005, published 2010)

Assays:
[1] = Continuous stirred tank reactor (CSTR) styrene polymerisation inhibition; conditions: CSTR 110° C., inhibitor 75 ppm; for Polymer level at steady state: nitrogen sparging
Experimental: The evaluation of the efficacy of a selection of nitroxide compounds of the invention was carried out using a continuous stirred tank reactor (CSTR) which mimicked the re-boiler of a styrene distillation column. […] Data gathered after this point was averaged to give the steady state polymer level. Nitrogen sparging to remove oxygen gas was carried out at a measured rate of 200 ml/minute. Apart from the inhibitors, the only variable was the inherent variation in the rate of thermal initiation of styrene polymerisation.

[2] = Tube polymerisation inhibition, acrylonitrile monomer; conditions: 120° C. for 7 days, air not removed, inhibitor 10 ppm
Experimental: (§1) The efficacy of various inhibitors was evaluated with respect to the monomers vinyl acetate, acrylonitrile, 2-ethylhexyl acrylate and isoprene. The efficacy of each inhibitor was determined by heating in pure monomer or a solution of monomer in a suitable solvent(s) for a set time and at a known temperature. The storage inhibitor was removed from each monomer by distillation or treatment with neutral silica. In each of the tables below, the amount of polymer generated is expressed as % w/w of the monomer.
Similarly, tubes containing acrylonitrile and various inhibitors were heated at 120° C. for 7 days. The air was not removed from these solutions prior to heating.

[3] = Solubility in water and toluene (saturated solutions, amount dissolved)
[4] = Tube polymerisation inhibition, isoprene monomer; conditions: 100 ppm inhibitor, 160° C. for 1 hr
Experimental: as §1
Similarly tubes containing 100 ppm inhibitor in a solution of Isoprene in dimethylformamide containing 1 or 3% furfural were heated at 160° C. for 1 hr. […] The results are expressed as ppm insoluble polymer.

[5] = Sealed-tube polymerisation inhibition, vinyl acetate monomer; conditions: degassed with nitrogen, 160° C. for 48 hours, inhibitor 25 ppm
Experimental: as §1
In this case, the tubes and solution were degassed with nitrogen prior to sealing and heating at 160° C. for 48 hours.

[6] = Tube inhibition time, 2-ethylhexyl acrylate monomer; conditions: 145° C., 5 ppm inhibitor, time to appearance of insoluble polymer
Experimental: as §1
Similarly, tubes containing 5 ppm inhibitor in 2-ethylhexyl acrylate were heated at 145° C. and the results expressed as inhibition time (i.e. the time to appearance of insoluble polymer). Data were generated in nitrogen and in the presence of air.

[7] = Solubility of inhibitors/retarders in styrene with and without 4-butoxy-TEMPO; conditions: in 4-butoxy-TEMPO plus styrene, 20° C.
Experimental: Saturated solutions of the inhibitors/retarders phenothiazine and 4-methoxyphenol were prepared in 4-butoxy-TEMPO. These saturated solutions were then added to styrene so that the concentration of each inhibitor/retarder was above the solubility limit for that material in styrene alone.

For “4-hydroxy-2,2,6,6-tetramethylpiperidine-1-oxide [4-hydroxy-TEMPO]”, the “Polymer level at steady state” value [1] was 180 ppm and the Polymer [2] was 0.18 % w/w.
In the case of “2,2,6,6-tetramethylpiperidine-1-oxide [TEMPO]”, the “Polymer level at steady state” value [1] is reported as 213 ppm.
In the case of `C=CCOC1CC(C)(C)N([O])C(C)(C)C1` [4-allyloxy-TEMPO], the “Polymer level (at 120 mins)” value ([1]; at 120 mins (not steady state)) is reported as 15199 (at 120 mins) ppm.
For “4-oxo-2,2,6,6-tetramethylpiperidine-1-oxide [4-oxo-TEMPO]”, the Solubility in toluene ([3]; saturated solution in toluene) was >80 % wt/wt and the Solubility in water ([3]; saturated solution in water) was 22.5 % wt/wt.
In the case of “4-butoxy-2,2,6,6-tetramethylpiperidine-1-oxide [4-butoxy-TEMPO]”, the “Insoluble polymer, 1% Furfural” value ([4]; isoprene in dimethylformamide with 1% furfural) is reported as 2.2 ppm, the “Insoluble polymer, 3% Furfural” value ([4]; isoprene in dimethylformamide with 3% furfural) is reported as 5.3 ppm and the “Polymer level at steady state” value [1] is reported as 341 ppm. The Polymer [5] was 19 % w/w, the “Inhibition time in air” value ([6]; air) was 40 min and the “Inhibition time in nitrogen” value ([6]; nitrogen) was 350 min. For the same compound, the Polymer [2] was 0.06 % w/w.
With `COC1CC(C)(C)N([O])C(C)(C)C1` [4-methoxy-TEMPO] the “Polymer level at steady state” value [1] was 172 ppm.
For `c1ccc2c(c1)Nc1ccccc1S2` [Phenothiazine, phenothiazine], the “Soluble amount, Wt % test material (with respect to styrene)” value [7] was 7.0 Wt % and the Polymer [5] was 35 % w/w.
